Measured values taken from ChEMBL document CHEMBL1139816, “Melanocortin subtype 4 receptor agonists: structure-activity relationships about the 4-alkyl piperidine core” (Bioorg Med Chem Lett, 2007).

Assays:
Melanocortin receptor 4 [1] = molecular target: T1, Melanocortin receptor 4 (Homo sapiens, UniProt P32245); experiment: Binding affinity to human MC4R
Melanocortin receptor 4 [2] = molecular target: T1, Melanocortin receptor 4; experiment: […] at human MC4R assessed as stimulation of cAMP production; assay type: functional; set-up: concentration or dose not given beside the values
Melanocortin receptor 5 = Melanocortin receptor 5 (Homo sapiens, UniProt P33032); experiment: […] at human MC5R assessed as stimulation of cAMP production; assay type: functional; set-up: concentration or dose not given beside the values
Sequence of Melanocortin receptor 5 (P33032 whole entry): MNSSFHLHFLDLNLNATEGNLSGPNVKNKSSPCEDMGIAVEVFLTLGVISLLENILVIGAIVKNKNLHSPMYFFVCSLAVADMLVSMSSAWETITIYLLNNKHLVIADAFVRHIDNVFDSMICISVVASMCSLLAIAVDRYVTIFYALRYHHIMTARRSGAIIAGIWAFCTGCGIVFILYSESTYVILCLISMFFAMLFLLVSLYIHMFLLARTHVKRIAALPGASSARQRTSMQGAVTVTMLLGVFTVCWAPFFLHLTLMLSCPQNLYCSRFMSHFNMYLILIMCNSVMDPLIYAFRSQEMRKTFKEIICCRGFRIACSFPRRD

Homo sapiens [3] = organism: Homo sapiens; experiment: Ratio of EC50 for human MC5R to EC50 for human MC4R
Melanocortin receptor 3 = Melanocortin receptor 3 (Homo sapiens, UniProt P41968); experiment: […] at human MC3R assessed as stimulation of cAMP production; assay type: functional; set-up: concentration or dose not given beside the values
Sequence of Melanocortin receptor 3 (P41968 whole entry): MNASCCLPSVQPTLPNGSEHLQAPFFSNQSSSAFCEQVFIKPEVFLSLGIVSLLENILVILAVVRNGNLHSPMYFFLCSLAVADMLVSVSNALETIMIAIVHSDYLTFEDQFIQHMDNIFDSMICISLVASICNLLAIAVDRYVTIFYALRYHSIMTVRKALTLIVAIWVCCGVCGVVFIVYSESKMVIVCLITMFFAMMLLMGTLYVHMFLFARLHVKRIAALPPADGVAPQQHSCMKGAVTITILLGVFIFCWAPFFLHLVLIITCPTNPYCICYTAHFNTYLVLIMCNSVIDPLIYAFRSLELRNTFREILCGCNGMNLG

Homo sapiens [4] = organism: Homo sapiens; experiment: Ratio of EC50 for human MC3R to EC50 for human MC4R

T1 sequence (P32245 whole entry): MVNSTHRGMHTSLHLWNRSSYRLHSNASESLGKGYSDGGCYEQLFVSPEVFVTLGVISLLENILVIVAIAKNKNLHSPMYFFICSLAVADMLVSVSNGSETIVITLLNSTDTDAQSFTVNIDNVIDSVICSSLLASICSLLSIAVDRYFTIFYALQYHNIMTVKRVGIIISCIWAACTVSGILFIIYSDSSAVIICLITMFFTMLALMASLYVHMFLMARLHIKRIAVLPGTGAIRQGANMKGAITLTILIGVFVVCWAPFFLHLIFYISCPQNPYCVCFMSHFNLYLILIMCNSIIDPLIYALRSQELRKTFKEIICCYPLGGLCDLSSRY

Structure (SMILES)	IC50 (Melanocortin receptor 4 [1]) [nM]	Activity (Melanocortin receptor 4 [2]) [%]	EC50 (Melanocortin receptor 4 [2]) [nM]	Activity (Melanocortin receptor 5) [%]	EC50 (Melanocortin receptor 5) [nM]	Selectivity ratio (Homo sapiens [3])	Activity (Melanocortin receptor 3) [%]	EC50 (Melanocortin receptor 3) [nM]	Selectivity ratio (Homo sapiens [4])
N#CCC1(C2CCCCC2)CCN(C(=O)[C@H](Cc2ccc(Cl)cc2)NC(=O)[C@H]2Cc3ccccc3CN2)CC1	6.8	51	189	42	640	3	–	–	–
Cn1nnnc1CC1(Cc2ccccc2)CCN(C(=O)[C@H](Cc2ccc(Cl)cc2)NC(=O)[C@H]2Cc3ccccc3CN2)CC1	52.3	70	111	20	1760	–	17	840	–
Cn1nnnc1CC1(CC(C)(C)C)CCN(C(=O)[C@H](Cc2ccc(Cl)cc2)NC(=O)[C@H]2Cc3ccccc3CN2)CC1	3.6	76	21	27	380	–	–	–	–
CN1CCN[C@@H](C(=O)N[C@@H](Cc2ccc(F)cc2)C(=O)N2CCC(C(=O)NC(C)(C)C)(C3CCCCC3)CC2)C1	13.6	98	6.5	31	977	–	–	–	–
N#CCC1(C2CC2)CCN(C(=O)[C@H](Cc2ccc(Cl)cc2)NC(=O)[C@H]2Cc3ccccc3CN2)CC1	173	–	–	–	–	–	–	–	–
CN1CCN[C@@H](C(=O)N[C@@H](Cc2ccc(F)cc2)C(=O)N2CCC(C(=O)NC(C)(C)C)(C3C=CC(=O)CC3)CC2)C1 (some centres undefined)	343	59	1770	–	–	–	–	–	–
Cn1nnnc1CC1(C2CCOCC2)CCN(C(=O)[C@H](Cc2ccc(Cl)cc2)NC(=O)[C@H]2Cc3ccccc3CN2)CC1	32	90	157	18	2950	–	18	2950	–
CCC(C)(C)C1(C(=O)NC(C)(C)C)CCN(C(=O)[C@H](Cc2ccc(F)cc2)NC(=O)[C@H]2CN(C)CCN2)CC1	66.2	55	151	–	–	–	–	–	–
CN1CCN[C@@H](C(=O)N[C@@H](Cc2ccc(F)cc2)C(=O)N2CCC(C(=O)NC(C)(C)C)(C3(C)CCCCC3)CC2)C1	36.6	79	57.8	56	1980	–	–	–	–
Cn1nnnc1CC1(c2ccc(Cl)cc2)CCN(C(=O)[C@H](Cc2ccc(Cl)cc2)NC(=O)[C@H]2Cc3ccccc3CN2)CC1	113	100	4.9	17	527	–	92	434	–
CCC1(CC#N)CCN(C(=O)[C@H](Cc2ccc(Cl)cc2)NC(=O)[C@H]2Cc3ccccc3CN2)CC1	759	–	–	–	–	–	–	–	–
CC(C)C1(CC#N)CCN(C(=O)[C@H](Cc2ccc(Cl)cc2)NC(=O)[C@H]2Cc3ccccc3CN2)CC1	63	32	827	20	1100	–	–	–	–
CC1CCC(C2(C(=O)NC(C)(C)C)CCN(C(=O)[C@H](Cc3ccc(F)cc3)NC(=O)[C@H]3CN(C)CCN3)CC2)CC1 (some centres undefined)	6.8	81	10	27	888	–	37	230	–
Cn1nnnc1CC1(C2CCCCC2)CCN(C(=O)[C@H](Cc2ccc(Cl)cc2)NC(=O)[C@H]2Cc3ccccc3CN2)CC1	0.85	96	3.2	57	222	69	50	115	36
CCCCC1(CC#N)CCN(C(=O)[C@H](Cc2ccc(Cl)cc2)NC(=O)[C@H]2Cc3ccccc3CN2)CC1	22.2	40	281	21	480	–	–	–	–

Continued, values first:

IC50 (Melanocortin receptor 4 [1]) [nM]	Activity (Melanocortin receptor 4 [2]) [%]	EC50 (Melanocortin receptor 4 [2]) [nM]	Activity (Melanocortin receptor 5) [%]	EC50 (Melanocortin receptor 5) [nM]	Selectivity ratio (Homo sapiens [3])	Activity (Melanocortin receptor 3) [%]	EC50 (Melanocortin receptor 3) [nM]	Selectivity ratio (Homo sapiens [4])	Structure (SMILES)
4	84	28.7	15	684	–	34	1000	–	CCCCCCC1(Cc2nnnn2C)CCN(C(=O)[C@H](Cc2ccc(Cl)cc2)NC(=O)[C@H]2Cc3ccccc3CN2)CC1
64	76	84.6	–	–	–	–	–	–	CN1CCN[C@@H](C(=O)N[C@@H](Cc2ccc(F)cc2)C(=O)N2CCC(C(=O)NC(C)(C)C)(C3C=CCCC3)CC2)C1 (some centres undefined)
16.4	52	196	40	630	–	–	–	–	N#CCC1(C2CCCC2)CCN(C(=O)[C@H](Cc2ccc(Cl)cc2)NC(=O)[C@H]2Cc3ccccc3CN2)CC1
840	54	2170	–	–	–	–	–	–	CN1CCN[C@@H](C(=O)N[C@@H](Cc2ccc(F)cc2)C(=O)N2CCC(CC3CC3)(C(=O)NC(C)(C)C)CC2)C1
3.7	107	3.9	39	250	–	33	263	–	CCC(C)C1(Cc2nnnn2C)CCN(C(=O)[C@H](Cc2ccc(Cl)cc2)NC(=O)[C@H]2Cc3ccccc3CN2)CC1 (some centres undefined)
1490	–	–	–	–	–	–	–	–	CC1(CC#N)CCN(C(=O)[C@H](Cc2ccc(Cl)cc2)NC(=O)[C@H]2Cc3ccccc3CN2)CC1
177	55	563	–	–	–	–	–	–	CN1CCN[C@@H](C(=O)N[C@@H](Cc2ccc(F)cc2)C(=O)N2CCC(CC3CCC3)(C(=O)NC(C)(C)C)CC2)C1
162	87	546	19	1120	–	42	241	–	CN1CCN[C@@H](C(=O)N[C@@H](Cc2ccc(F)cc2)C(=O)N2CCC(C(=O)NC(C)(C)C)(C3CCC(C)(C)CC3)CC2)C1
6	98	12.5	46	662	–	31	680	–	CC(C)CC1(Cc2nnnn2C)CCN(C(=O)[C@H](Cc2ccc(Cl)cc2)NC(=O)[C@H]2Cc3ccccc3CN2)CC1
